Legend:
[1] = tested on: HCV replicon I389luc-ubi-neo/NS3-3'/ET in ET (Huh-lucubineo-ET) cells; assay: Replicon assay (Biological Example 2), luciferase read-out; type: cell-based; details: Hepatitis C virus, luciferase activity 48 hours after compound addition
Outline: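 ET cells stably carry the replicon with adaptive mutations E1202G, […] and K1846T. Compound is added 24 h after plating at 0.1 nM–50 μM final (10-point, 3-fold dilutions) with 0.5% DMSO, and luciferase is read 48 h later. EC50 comes from a Hill-equation fit of % inhibition versus no-compound control.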

HCV polymerase = molecular target: T1, HCV polymerase (Hepatitis C virus genotype 1b, UniProt Q9WMX2); assay: biochemical; details: polymerase assay of Biological Example 1; read-out: NS5B polymerase IC50
T1 construct: (His)6 (C)

Structure (SMILES) | IC50 [1] [nM] | IC50 (HCV polymerase) [nM]
CNC(=O)c1c(-c2ccc(F)cc2)oc2nc(N(CCCC(C)(C)C(=O)OCC(C)C)S(C)(=O)=O)c(C3CC3)cc12 [Example 26, isobutyl 5-(N-(5-cyclopropyl-2-(4-fluorophenyl)-3-(methylcarbamoyl)furo[2,3-b]pyridin-6-yl)methylsulfonamido)-2,2-dimethylpentanoate] | ≤ 100 | 6
CNC(=O)c1c(-c2ccc(C)cc2)oc2nc(N(CCC3CCS(=O)(=O)C3)S(C)(=O)=O)c(C3CC3)cc12 (stereo not drawn) [Example 26.1, 5-Cyclopropyl-6-{[2-(1,1-dioxo-tetrahydro-thiophen-3-yl)-ethyl]-methanesulfonyl-amino}-2-p-tolyl-furo[2,3-b]pyridine-3-carboxylic acid methylamide] | ≤ 100 | 1
CNC(=O)c1c(-c2ccc(F)cc2)oc2nc(N(CCCCCS(C)(=O)=O)S(C)(=O)=O)c(C3CC3)cc12 [Example 26.2, 5-cyclopropyl-2-(4-fluorophenyl)-N-methyl-6-(N-(5-(methylsulfonyl)pentyl)methylsulfonamido) furo[2,3-b]pyridine-3-carboxamide] | ≤ 100 | 4
CCOC(=O)CCCCN(c1nc2oc(-c3ccc(Cl)cc3)c(C(=O)NC)c2cc1C1CC1)S(C)(=O)=O [Example 26.3, ethyl 5-(N-(2-(4-chlorophenyl)-5-cyclopropyl-3-(methylcarbamoyl)furo[2,3-b]pyridin-6-yl)methylsulfonamido) pentanoate] | ≤ 100 | 3
CNC(=O)c1c(-c2ccc(F)cc2)oc2nc(N(CCCC(C)O)S(C)(=O)=O)c(C3CC3)cc12 (stereo not drawn) [Example 26.4, 5-cyclopropyl-2-(4-fluorophenyl)-6-(N-(4-hydroxypentyl)methylsulfonamido)-N-methylfuro[2,3-b]pyridine-3-carboxamide] | ≤ 100 | 5
CNC(=O)c1c(-c2ccc(F)cc2)oc2nc(N(CCC(C)O)S(C)(=O)=O)c(C3CC3)cc12 (stereo not drawn) [Example 26.5, 5-cyclopropyl-2-(4-fluorophenyl)-6-(N-(3-hydroxybutyl)methylsulfonamido)-N-methylfuro[2,3-b]pyridine-3-carboxamide] | ≤ 100 | 10
CNC(=O)c1c(-c2ccc(F)cc2)oc2nc(N(CCC(C)S(C)(=O)=O)S(C)(=O)=O)c(C3CC3)cc12 (stereo not drawn) [Example 26.6, 5-cyclopropyl-2-(4-fluorophenyl)-N-methyl-6-(N-(3-(methylsulfonyl)butyl)methylsulfonamido)furo[2,3-b]pyridine-3-carboxamide] | ≤ 100 | 4
CNC(=O)c1c(-c2ccc(C)cc2)oc2nc(N(CCC(C)O)S(C)(=O)=O)c(C3CC3)cc12 (stereo not drawn) [Example 26.7, 5-cyclopropyl-6-(N-(3-hydroxybutyl)methylsulfonamido)-N-methyl-2-p-tolylfuro[2,3-b]pyridine-3-carboxamide] | ≤ 100 | 2
CNC(=O)c1c(-c2ccc(F)cc2)oc2nc(N(CCCCC(=O)OC)S(C)(=O)=O)c(C3CC3)cc12 [Example 26.8, methyl 5-(N-(5-cyclopropyl-2-(4-fluorophenyl)-3-(methylcarbamoyl)furo[2,3-b]pyridin-6-yl)methylsulfonamido) pentanoate] | ≤ 100 | 5
CNC(=O)c1c(-c2ccc(Oc3ccccc3)cc2)oc2nc(N(CCCCC(=O)O)S(C)(=O)=O)c(C3CC3)cc12 [Example 27, 5-(N-(5-cyclopropyl-3-(methylcarbamoyl)-2-(4-phenoxyphenyl)furo[2,3-b]pyridin-6-yl)methylsulfonamido) pentanoic acid] | ≤ 100 | 1
CNC(=O)c1c(-c2ccc(Oc3ccc(F)cc3)cc2)oc2nc(N(CCCCC(=O)O)S(C)(=O)=O)c(C3CC3)cc12 [Example 27.2, 5-(N-(5-cyclopropyl-2-(4-(4-fluorophenoxy)phenyl)-3-(methylcarbamoyl)furo[2,3-b]pyridin-6-yl)methylsulfonamido) pentanoic acid] | ≤ 100 | 1
CNC(=O)c1c(-c2ccc(Oc3ccccc3)cc2)oc2nc(N(CCCC(C)(C)C(=O)O)S(C)(=O)=O)c(C3CC3)cc12 [Example 27.4, 5-(N-(5-cyclopropyl-3-(methylcarbamoyl)-2-(4-phenoxyphenyl)furo[2,3-b]pyridin-6-yl)methylsulfonamido)-2,2-dimethylpentanoic acid] | ≤ 100 | 1
CNC(=O)c1c(-c2ccc(Cl)cc2)oc2nc(N(CCCCC(=O)O)S(C)(=O)=O)c(C3CC3)cc12 [Example 27.5, 5-(N-(2-(4-chlorophenyl)-5-cyclopropyl-3-(methylcarbamoyl)furo[2,3-b]pyridin-6-yl)methylsulfonamido) pentanoic acid] | ≤ 100 | 1
CNC(=O)c1c(-c2ccc(Cc3ccccc3)cc2)oc2nc(N(CCCCC(=O)O)S(C)(=O)=O)c(C3CC3)cc12 [Example 27.6, 5-(N-(2-(4-benzylphenyl)-5-cyclopropyl-3-(methylcarbamoyl)furo[2,3-b]pyridin-6-yl)methylsulfonamido) pentanoic acid] | ≤ 100 | 1
CNC(=O)c1c(-c2ccc(C3CC3)cc2)oc2nc(N(CCCCC(=O)O)S(C)(=O)=O)c(C3CC3)cc12 [Example 27.7, 5-(N-(5-cyclopropyl-2-(4-cyclopropylphenyl)-3-(methylcarbamoyl)furo[2,3-b]pyridin-6-yl)methylsulfonamido) pentanoic acid] | ≤ 100 | 1
CCc1ccc(-c2oc3nc(N(CCCCC(=O)O)S(C)(=O)=O)c(C4CC4)cc3c2C(=O)NC)cc1 [Example 27.8, 5-(N-(5-cyclopropyl-2-(4-ethylphenyl)-3-(methylcarbamoyl)furo[2,3-b]pyridin-6-yl)methylsulfonamido) pentanoic acid] | ≤ 100 | 1
CNC(=O)c1c(-c2ccc(C)cc2)oc2nc(N(CCCCCC(=O)O)S(C)(=O)=O)c(C3CC3)cc12 [Example 27.9, 6-(N-(5-cyclopropyl-3-(methylcarbamoyl)-2-p-tolylfuro[2,3-b]pyridin-6-yl)methylsulfonamido) hexanoic acid] | ≤ 100 | 2
CNC(=O)c1c(-c2ccc(C)cc2)oc2nc(N(CCCC3(C(=O)O)CCCC3)S(C)(=O)=O)c(C3CC3)cc12 [Example 28, 1-(3-(N-(5-cyclopropyl-3-(methylcarbamoyl)-2-p-tolylfuro[2,3-b]pyridin-6-yl)methylsulfonamido)propyl) cyclopentanecarboxylic acid] | ≤ 100 | 1
CNC(=O)c1c(-c2ccc(C)cc2)oc2nc(N(CC[C@@H]3C[C@H]3C(=O)O)S(C)(=O)=O)c(C3CC3)cc12 [Example 28.1, (1R,2S)-2-(2-(N-(5-cyclopropyl-3-(methylcarbamoyl)-2-p-tolylfuro[2,3-b]pyridin-6-yl)methylsulfonamido)ethyl) cyclopropanecarboxylic acid] | ≤ 100 | 2
CNC(=O)c1c(-c2ccc(C)cc2)oc2nc(N(CC[C@H]3C[C@@H]3C(=O)O)S(C)(=O)=O)c(C3CC3)cc12 [Example 28.2, (1S,2R)-2-(2-(N-(5-cyclopropyl-3-(methylcarbamoyl)-2-p-tolylfuro[2,3-b]pyridin-6-yl)methylsulfonamido)ethyl) cyclopropanecarboxylic acid] | ≤ 100 | 2
CNC(=O)c1c(-c2ccc(Cl)cc2)oc2nc(N(CCCC(C)(C)C(=O)O)S(C)(=O)=O)c(C3CC3)cc12 [Example 28.3, 5-(N-(2-(4-chlorophenyl)-5-cyclopropyl-3-(methylcarbamoyl)furo[2,3-b]pyridin-6-yl)methylsulfonamido)-2,2-dimethylpentanoic acid] | ≤ 100 | 2
CNC(=O)c1c(-c2ccc(C)cc2)oc2nc(N(CCCC(C(=O)O)c3ccccc3)S(C)(=O)=O)c(C3CC3)cc12 (stereo not drawn) [Example 28.5, 5-(N-(5-cyclopropyl-3-(methylcarbamoyl)-2-p-tolylfuro[2,3-b]pyridin-6-yl)methylsulfonamido)-2-phenylpentanoic acid] | ≤ 100 | 1
CNC(=O)c1c(-c2ccc(F)cc2)oc2nc3c(cc12)C(C)CCCN3S(C)(=O)=O (stereo not drawn) [Example 30, 2-(4-Fluoro-phenyl)-9-methanesulfonyl-5-methyl-6,7,8,9-tetrahydro-5H-1-oxa-9,10-diaza-cyclohepta[f]indene-3-carboxylic acid methylamide] | ≤ 100 | 62
CNC(=O)c1c(-c2ccc(F)cc2)oc2nc3c(cc12)C(C)C(O)CCN3S(C)(=O)=O (stereo not drawn) [Example 31, 2-(4-Fluoro-phenyl)-6-hydroxy-9-methanesulfonyl-5-methyl-6,7,8,9-tetrahydro-5H-1-oxa-9,10-diaza-cyclohepta[f]indene-3-carboxylic acid methylamide] | ≤ 100 | 35
CNC(=O)c1c(-c2ccc(F)cc2)oc2nc3c(cc12)CCCCCN3S(C)(=O)=O [Example 36, 2-(4-Fluoro-phenyl)-10-methanesulfonyl-5,6,7,8,9,10-hexahydro-1-oxa-10,11-diaza-cycloocta[f]indene-3-carboxylic acid methylamide] | ≤ 100 | 50
CNC(=O)c1c(-c2ccc(F)cc2)oc2nc3c(cc12)C(C)OCCN3S(C)(=O)=O (stereo not drawn) [Example 36.2, 2-(4-Fluoro-phenyl)-9-methanesulfonyl-5-methyl-5,7,8,9-tetrahydro-1,6-dioxa-9,10-diaza-cyclohepta[f]indene-3-carboxylic acid methylamide] | ≤ 100 | 35
CNC(=O)c1c(-c2ccc(F)cc2)oc2nc3c(cc12)C(C)CCCCN3S(C)(=O)=O (stereo not drawn) [Example 36.3, 2-(4-Fluoro-phenyl)-10-methanesulfonyl-5-methyl-5,6,7,8,9,10-hexahydro-1-oxa-10,11-diaza-cycloocta[f]indene-3-carboxylic acid methylamide] | ≤ 100 | 70
